Test results from publication PMC8893300, “A Dynamic Mass Redistribution Assay for the Human Sweet Taste Receptor Uncovers G-Protein Dependent Biased Ligands” (Frontiers in Pharmacology, 2022).
Like-named read-outs stand apart in the source and are kept apart here. Marks after values point to notes of the source that are not given here.

Molecular target: T1, human sweet taste receptor (hT1R2/hT1R3) (Homo sapiens, UniProt Q7RTX0+Q8TE23)
T1 construct: expressed in transfected cells
T1 sequence (Q8TE23 20-839): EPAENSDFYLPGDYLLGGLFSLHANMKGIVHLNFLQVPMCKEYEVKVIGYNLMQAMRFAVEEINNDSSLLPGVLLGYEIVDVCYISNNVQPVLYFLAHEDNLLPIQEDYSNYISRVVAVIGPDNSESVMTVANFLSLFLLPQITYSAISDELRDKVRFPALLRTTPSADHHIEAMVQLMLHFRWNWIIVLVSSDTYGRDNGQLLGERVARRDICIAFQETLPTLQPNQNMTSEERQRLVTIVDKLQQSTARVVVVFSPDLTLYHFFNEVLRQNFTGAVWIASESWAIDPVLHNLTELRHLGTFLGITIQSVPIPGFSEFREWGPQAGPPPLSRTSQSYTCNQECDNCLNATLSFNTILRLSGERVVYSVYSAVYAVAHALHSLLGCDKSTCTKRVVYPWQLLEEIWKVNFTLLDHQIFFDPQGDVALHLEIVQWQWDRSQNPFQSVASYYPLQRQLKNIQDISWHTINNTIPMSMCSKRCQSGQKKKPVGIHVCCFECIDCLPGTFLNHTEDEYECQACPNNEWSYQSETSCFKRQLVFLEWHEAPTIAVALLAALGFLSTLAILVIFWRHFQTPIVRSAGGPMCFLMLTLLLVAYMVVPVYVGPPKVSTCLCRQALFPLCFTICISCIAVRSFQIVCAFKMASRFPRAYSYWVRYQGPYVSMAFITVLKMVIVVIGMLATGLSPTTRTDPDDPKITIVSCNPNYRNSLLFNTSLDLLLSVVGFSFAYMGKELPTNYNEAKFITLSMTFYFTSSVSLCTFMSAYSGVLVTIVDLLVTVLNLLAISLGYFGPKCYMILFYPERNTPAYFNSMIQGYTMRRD
T1 sequence (Q7RTX0 21-852): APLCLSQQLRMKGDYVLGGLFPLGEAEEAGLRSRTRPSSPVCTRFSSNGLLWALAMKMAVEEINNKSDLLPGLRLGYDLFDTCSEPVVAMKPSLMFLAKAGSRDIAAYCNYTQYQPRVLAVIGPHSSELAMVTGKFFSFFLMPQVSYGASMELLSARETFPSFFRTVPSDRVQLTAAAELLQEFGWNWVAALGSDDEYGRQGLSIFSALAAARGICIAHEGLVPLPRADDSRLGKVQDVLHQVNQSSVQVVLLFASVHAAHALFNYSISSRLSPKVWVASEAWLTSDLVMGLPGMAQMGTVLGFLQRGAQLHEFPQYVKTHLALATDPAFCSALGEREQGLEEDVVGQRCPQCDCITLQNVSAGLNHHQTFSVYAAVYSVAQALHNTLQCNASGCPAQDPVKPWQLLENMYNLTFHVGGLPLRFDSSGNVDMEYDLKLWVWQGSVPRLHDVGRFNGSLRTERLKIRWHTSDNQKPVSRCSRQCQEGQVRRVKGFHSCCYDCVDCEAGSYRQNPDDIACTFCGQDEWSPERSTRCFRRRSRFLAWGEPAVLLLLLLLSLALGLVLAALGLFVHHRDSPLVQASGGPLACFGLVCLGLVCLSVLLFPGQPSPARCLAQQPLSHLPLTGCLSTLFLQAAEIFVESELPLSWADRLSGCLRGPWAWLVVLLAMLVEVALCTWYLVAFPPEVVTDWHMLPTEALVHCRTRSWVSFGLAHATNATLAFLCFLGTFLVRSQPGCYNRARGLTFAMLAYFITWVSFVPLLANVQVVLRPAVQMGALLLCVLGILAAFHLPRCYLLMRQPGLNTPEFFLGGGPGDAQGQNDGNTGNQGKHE
Assay: DMR assay (Epic reader) on R2/R3 U2OS cells, endogenous G proteins
Format: cell-based
Details: for EC50: R2/R3 U2OS cells, peak DMR response; for ΔlogR DMR Mean: Table 2, operational model, logR minus sucralose logR; for Activity in DMR assay Emax: top asymptote of dose-response normalized to 1 mM sucralose
Method: The plates were incubated in the tissue culture hood for 20 min to allow cells to settle evenly at the bottom of the microplate and further cultured at 37°C in an atmosphere of 5% CO2 for 18–24 h. The next day, the cells were subjected to functional analysis using DMR. […] When indicated, data for agonist dose-responses were normalized to data obtained with a maximum concentration of sucralose (1 mM) and then fitted and plotted using GraphPad Prism (San Diego, CA) and non-linear regression analysis.
This value, that we termed pEC50Ratio (sucralose) or pEC50R (sucralose), was calculated with EC50 values obtained in the two assay systems. This transformation also allowed determination of an average and a standard error for the pEC50R (sucralose). The two sets of data (DMR and FLIPR data) were then analyzed with an un-paired t-test (α = 0.05). To calculate relative efficacy bias between the two assays, we captured the top asymptote value from each activity-normalized dose-response curve, as provided by the curve fit, calculated an average and a standard deviation (sd) for each agonist and then analyzed the data pairs with an un-paired t-test (α = 0.05). […] The following steps were followed: 1) Using the PRISM software, we re-analyzed each ligand’s dose-response data obtained in each assay with non-linear regression and the users-defined equation “New Operational Model with TauKa ratios” and retrieved logR values from the fits. 2) Subtracted each ligand’s logR value with that of our standard, the sucralose logR value, obtained from the same data set (each ligand dose-response assay data used in this analysis was accompanied with a sucralose dose-response ran on the same day), producing the ΔlogR value for leach ligand in each assay. 3) Calculated the mean and SEM from ΔlogR replicates (from three to nine independent dose-response analysis, in the two different assays). 4) Calculated ΔΔlogR values by subtracting the averaged ligands’ ΔlogR FLIPR values with the averaged ligands’ ΔlogR DMR values.

[1] = read-out: Activity in DMR assay EC50
[2] = read-out: Activity in DMR assay pEC50 (converted)

Row | EC50 [1] [nM] | EC50 [2] [nM] | ΔlogR DMR Mean | Activity in DMR assay Emax | Compound
1 | 7700 | 7290 | 1.15 | 99* | COC(=O)[C@H](Cc1ccccc1)NC(=O)[C@H](CC(=O)O)NCCC(C)(C)C [Neotame]
2 | 700 | 637 | 2.52 | 143* | CC(C)Oc1ccc(NC(=S)NCc2ccc[nH]2)cc1 [S819]
3 | 2200 | 2070 | 1.84 | 128 | CC(C)Oc1ccc(NC(=S)NCc2cccs2)cc1 [S5227]
